In publication PMC6352937, “Inhibition of protein phosphatase-1 and -2A by ellagitannins: structure-inhibitory potency relationships and influences on cellular systems” (Journal of Enzyme Inhibition and Medicinal Chemistry, 2019):

What was measured:
[1] = molecular target: PP1c; experiment: Protein phosphatase assay with 32P-MLC20, native PP1c; format: biochemical; conditions: native PP1c from rabbit skeletal muscle; 1 µM 32P-MLC20; 10 min preincubation; mean ± SD
Procedure: (§1) Protein phosphatase activity of either skeletal muscle PP1c or PP2Ac (1.9–2.2 nM), or rPP1cα or rPP1cδ (2.71–3.72 nM), or FLAG-MYPT1-PP1c (∼9 nM) was assayed at 30 °C in absence or presence of polyphenol compounds (0.1–100 µM) in 20 mM Tris/HCl (pH 7.4), 0.1% 2-mercaptoethanol (30 µL). The purified phosphatase samples or HeLa lysates in 300-fold dilution (1.8–3.6 µg/ml) in the presence or absence of 2 µM I2 were preincubated with increasing concentration of the polyphenol compounds (0–100 µM) for 10 min then the reaction was started by the addition of 1 µM ^32P-MLC20 and incubated for 10 min. Polyphenol-treated HeLa cells were washed then lysed in 50 mM Tris/HCl (pH 8.0), 150 mM NaCl, 1% (V/V) Triton X-100, 0.15% (w/v) protease inhibitor cocktail. The phosphatase activity was assayed with 1 µM ^32P-MLC20 for 30 s in 3-fold final dilution (0.24–0.43 mg/ml). The reactions were terminated by the addition of 200 µL of 10% trichloroacetic acid and 200 µL of 6 mg/mL BSA solution. The samples were centrifuged for 3 min at 10,000 rpm and the supernatants (370 µL) were transferred into scintillation vials and the radioactivity of the released ^32Pi was determined in Tri-Carb 2800TR scintillation counter.
(§2) The ellagitannins (Figure 1) assayed on the activity of PP1c or PP2Ac in this study are similar to PGG in composition, but they differ structurally in two important aspects: (i) all of them include hexahydroxydiphenoyl unit linked in various positions, except for pedunculagin which includes two of these linkages; (ii) tellimagrandin I, pedunculagin, and praecoxin B have free glycosidic hydroxyls, while GHG has an unmodified hydroxyl at position 3 of the glucopyranose ring. […] Inhibition of the phosphatase activity by ellagitannins in HeLa cell lysate was also assessed. First, we determined the activity of PP1 and PP2A in the lysates using I2 to inhibit PP1, and low concentration of OA (2 nM) to suppress PP2A specifically, in order to determine the contribution of PP1 and PP2A to the phosphatase activity of lysates (Figure 2(E)).
(§3) Figure 2. The effect of ellagitannins on the activity of PP1 and PP2A. Ellagitannins (0.1–100 µM) were preincubated with the phosphatase samples for 10 min and the phosphatase activity was determined in triplicates with 1 µM ^32P-MLC20 substrate as described in “Materials and methods” section. […] The effect of tellimagrandin I on the activity of rPP1cα (^) and rPP1cδ (●) (C), or FLAG-MYPT1-PP1cδ (▼) (D), or on the phosphatase activity of HeLa lysate in the presence of I2 (□) (F). The effect of I2 and OA on the phosphatase activity of HeLa lysate (E). Phosphatase activity in the absence of ellagitannins, I2 or OA was taken as 100%. Data are means ± SD (n = 3–5).

[2] = molecular target: PP2Ac; experiment: Protein phosphatase assay with 32P-MLC20, native PP2Ac; format: biochemical; conditions: native PP2Ac from rabbit skeletal muscle; 1 µM 32P-MLC20; 10 min preincubation; mean ± SD
Procedure: as §1, §2, §3

[3] = system: HeLa lysate; experiment: Phosphatase activity of HeLa cell lysate (32P-MLC20); format: biochemical, human; conditions: HeLa lysate in 300-fold dilution; 1 µM 32P-MLC20; mean ± SD
Procedure: as §1, §2, §3

[4] = molecular target: T1, rPP1cα (Homo sapiens, UniProt P62136); experiment: Microscale thermophoresis (MST); format: binding
T1 construct: FLAG; made in house
T1 sequence (P62136 whole entry): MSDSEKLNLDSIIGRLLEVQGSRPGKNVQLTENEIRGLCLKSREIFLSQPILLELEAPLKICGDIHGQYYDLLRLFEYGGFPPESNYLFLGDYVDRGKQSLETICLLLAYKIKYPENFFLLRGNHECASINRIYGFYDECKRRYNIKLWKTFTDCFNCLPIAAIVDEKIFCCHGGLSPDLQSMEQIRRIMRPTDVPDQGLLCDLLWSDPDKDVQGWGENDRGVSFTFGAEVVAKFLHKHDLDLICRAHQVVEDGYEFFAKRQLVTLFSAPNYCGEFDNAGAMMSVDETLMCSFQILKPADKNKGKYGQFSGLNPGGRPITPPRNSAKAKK
Procedure: Figure 3. […] The changes in either, the intrinsic fluorescence of unlabelled rPP1cα upon binding to tellimagrandin I and PGG, or changes in fluorescent signal from rPP1cα extrinsically labelled with NT647 dye upon binding with EGCG, were determined at a range of concentration of polyphenols, and the fractions bound are presented. Data points are means ± SD (n = 3).

Work on O=C1OC[C@H]2OC(O)[C@@H]3OC(=O)c4cc(O)c(O)c(O)c4-c4c(cc(O)c(O)c4O)C(=O)O[C@H]3[C@@H]2OC(=O)c2cc(O)c(O)c(O)c2-c2c1cc(O)c(O)c2O (some centres unmarked) [pedunculagin] yielded an IC50 [1] of roughly 2.47 µM, an IC50 [2] greater than 100 µM and an IC50 [3] of 33.9 ± 4.54 µM.
Compound O=C(OC[C@H]1O[C@@H](OC(=O)c2cc(O)c(O)c(O)c2)[C@H](OC(=O)c2cc(O)c(O)c(O)c2)[C@@H](OC(=O)c2cc(O)c(O)c(O)c2)[C@@H]1OC(=O)c1cc(O)c(O)c(O)c1)c1cc(O)c(O)c(O)c1 [PGG, penta-O-galloyl-β-D-glucose] has a Kd ([4]; unlabelled rPP1cα, intrinsic fluorescence (NT.LabelFree)) of 3.08 ± 0.35 µM.
Work on O=C(O[C@@H]1O[C@@H]2COC(=O)c3cc(O)c(O)c(O)c3-c3c(cc(O)c(O)c3O)C(=O)O[C@H]2[C@H](O)[C@H]1OC(=O)c1cc(O)c(O)c(O)c1)c1cc(O)c(O)c(O)c1 [GHG, 1,2-di-O-galloyl-4,6-(S)-hexahydroxydiphenoyl-β-D-glucose] yielded an IC50 [1] of 1.41 ± 0.3 µM, an IC50 [2] greater than 100 µM and an IC50 [3] of 13 ± 3.3 µM.
For epigallocatechin-3-gallate [EGCG], the Kd ([4]; rPP1cα labelled with NT-647 (NT.115)) was 8.2 ± 4.3 µM.
